Data: patent publication US9303042B2, “Triazolothienopyrimidine compound inhibitors of urea transporters and methods of using inhibitors” (The Regents of the University of California, priority 2012, dated 2016)

Assays:
UT-A1 = molecular target: T1, UT-A1 (Rattus norvegicus, UniProt Q62668); experiment: Transepithelial urea transport in MDCK cells stably expressing UT-A1; type: cell-based; conditions: UTBinh-14 10 μM, forskolin
T1 construct: expressed in transfected cells; host or cells: MDCK cells (MDCK-UT-A1), obtained as described in cited literature
T1 sequence (Q62668 1-929): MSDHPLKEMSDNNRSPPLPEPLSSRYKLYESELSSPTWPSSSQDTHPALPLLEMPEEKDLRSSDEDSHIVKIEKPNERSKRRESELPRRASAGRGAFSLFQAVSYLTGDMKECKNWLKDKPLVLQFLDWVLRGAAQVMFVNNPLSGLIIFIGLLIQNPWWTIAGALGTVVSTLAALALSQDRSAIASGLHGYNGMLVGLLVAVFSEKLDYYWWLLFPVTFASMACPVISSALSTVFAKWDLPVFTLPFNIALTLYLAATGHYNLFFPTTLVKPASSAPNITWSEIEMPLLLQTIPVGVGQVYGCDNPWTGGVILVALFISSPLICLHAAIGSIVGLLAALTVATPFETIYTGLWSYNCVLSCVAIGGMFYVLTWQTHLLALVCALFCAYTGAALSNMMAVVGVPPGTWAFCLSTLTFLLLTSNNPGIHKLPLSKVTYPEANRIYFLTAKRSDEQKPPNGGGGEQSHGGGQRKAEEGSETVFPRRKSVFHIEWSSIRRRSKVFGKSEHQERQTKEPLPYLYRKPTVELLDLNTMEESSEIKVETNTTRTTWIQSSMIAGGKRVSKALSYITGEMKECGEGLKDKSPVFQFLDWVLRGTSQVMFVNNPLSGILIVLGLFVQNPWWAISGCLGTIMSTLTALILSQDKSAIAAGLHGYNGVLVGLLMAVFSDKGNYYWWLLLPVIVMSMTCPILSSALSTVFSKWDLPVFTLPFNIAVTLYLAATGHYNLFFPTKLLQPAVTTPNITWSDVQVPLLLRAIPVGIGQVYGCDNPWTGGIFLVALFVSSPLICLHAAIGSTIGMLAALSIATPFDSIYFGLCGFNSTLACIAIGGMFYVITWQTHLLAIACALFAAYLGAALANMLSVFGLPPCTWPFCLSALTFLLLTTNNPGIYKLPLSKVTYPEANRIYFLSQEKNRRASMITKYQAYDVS
Experimental: UT-B selectivity and cytotoxicity were studied. Because of sequence similarities between UT-B and UT-A isoforms, UT-A inhibition was measured. Transepithelial urea transport was measured in MDCK cells stably expressing UT-A1, UT-A3, and UT-B. UT-A1 and UT-A3 are cAMP-regulated urea transporters expressed in kidney tubule epithelia (see, e.g., Frohlich et al., Am. J. Physiol. Cell Physiol. 291:C600-606 (2006); Tickle et al., Am. J. Physiol. Regul. Integr. Comp Physiol 0.297: R323-329 (2009); Stewart et al., Am. J. Physiol. Renal Physiol. 292:F1157-63 (2006)). MDCK cells were cultured on collagen-coated porous filters for measurement of urea accumulation in the apical solution following addition of urea to the basolateral solution.
cDNAs encoding mouse UT-A3 and UT-B were cloned into pcDNA3.1 and used to generate stably transfected MDCK cell lines. MDCK cells stably expressing rat UT-A1 (MDCK-UT-A1) (see, e.g., Frohlich et al., supra) were obtained as described (see, e.g., Levin et al., FASEB J., supra). Cells were cultured in DMEM containing 10% FBS and 0.5 mg/mL G418. […] Urea flux in the basolateral-to-apical direction across unstimulated and forskolin-stimulated cell layers was measured in response to a 15-mM urea gradient. […]

AQP1-null erythrocytes = experiment: Erythrocyte osmotic water permeability by stopped-flow light scattering, AQP1-null erythrocytes; type: cell-based, mouse; conditions: 100 mM sucrose gradient, 10 °C
Experimental: Erythrocyte urea and water permeabilities were measured by stopped-flow light scattering using a Hi-Tech Sf-51 instrument (Wiltshire, UK). […] Urea permeability and percentage inhibition were computed as described (see, e.g., Levin et al., FASEB J. supra, 2007)). In some experiments, different urea gradients (25-200 mM) were used, or inhibitor was added only to the erythrocyte-containing or urea-containing solutions. In some experiments an outwardly directed urea gradient was used in which erythrocytes were incubated for 30 min with PBS containing specified urea and mixed in the stopped-flow apparatus with PBS. In reversibility experiments, erythrocytes were incubated for 30 min with inhibitor, washed three times to remove inhibitor, and urea transport assayed. Osmotic water permeability was measured using a 100 mM gradient of sucrose.
Erythrocyte osmotic water permeability was measured by stopped-flow light scattering. […] Life Sci. 52:474-78 (2009)).

CCc1ccc(S(=O)(=O)c2nnn3c2nc(NCc2cccs2)c2sccc23)cc1 [UTBinh-14, [3-(4-Ethyl-benzenesulfonyl)-thieno[2,3-e][1,2,3]triazolo[1,5-a]pyrimidin-5-yl]-thiophen-2-ylmethylamine]
inhibition of UT-A1 facilitated urea transport (UT-A1): little inhibition
water transport in AQP1-null erythrocytes (AQP1-null erythrocytes): inhibited water transport significantly
